Experiment: Clearance following intravenous administration in normal subjects (heart and liver)
Assay type: in vivo, human
From the text: Table II approximates the effective clearance of Technetium Tc-99 m Teboroxime from the heart and liver.

C[B-](ON=C1CCCCC1=N[O-])(ON=C1CCCCC1=NO)ON=C1CCCCC1=NO.[99Tc+3].[Cl-] [Technetium Tc-99 m Teboroxime, ^99m Tc (chlorine) (1,2-cyclohexanedione dioxime)3 methyl boron]
clearance from the circulation: rapidly cleared from the circulation | time of peak heart uptake (heart): ≤ 2 min | effective clearance, Heart (heart, 5 min): 2.3% | effective clearance, Heart (heart, 10 min): 1.7% | effective clearance, Heart (heart, 15 min): 1.5% | effective clearance, Heart (heart, 20 min): 1.3% | effective clearance, Heart (heart, 1 hr): 1.1% | effective clearance, Heart (heart, 2 hr): 0.8% | effective clearance, Heart (heart, 4 hr): 0.6% | effective clearance, Liver (5 min): 23% | effective clearance, Liver (10 min): 33% | effective clearance, Liver (15 min): 32% | effective clearance, Liver (20 min): 27% | effective clearance, Liver (1 hr): 24% | effective clearance, Liver (2 hr): 18% | effective clearance, Liver (4 hr): 17%
